Results: patent US12630498B2 (Genzyme Corporation, priority 2019, dated 2026)

What was measured:
[1] = molecular target: T1, human Cystic Fibrosis Transmembrane Conductance Regulator (CFTR) harboring the ΔF508 mutation (Homo sapiens, UniProt P13569, DEL508-508); assay: H441 cell ΔF508-CFTR-HRP cell surface assay (Emax and EC50); assay type: cell-based; conditions: for Emax: NCI-H441, NA = Not active
T1 construct: expressed in transfected cells; host or cells: H441 carcinoma line (G418-selected)
T1 sequence (P13569 with tags, fused parts or gaps DEL508-508): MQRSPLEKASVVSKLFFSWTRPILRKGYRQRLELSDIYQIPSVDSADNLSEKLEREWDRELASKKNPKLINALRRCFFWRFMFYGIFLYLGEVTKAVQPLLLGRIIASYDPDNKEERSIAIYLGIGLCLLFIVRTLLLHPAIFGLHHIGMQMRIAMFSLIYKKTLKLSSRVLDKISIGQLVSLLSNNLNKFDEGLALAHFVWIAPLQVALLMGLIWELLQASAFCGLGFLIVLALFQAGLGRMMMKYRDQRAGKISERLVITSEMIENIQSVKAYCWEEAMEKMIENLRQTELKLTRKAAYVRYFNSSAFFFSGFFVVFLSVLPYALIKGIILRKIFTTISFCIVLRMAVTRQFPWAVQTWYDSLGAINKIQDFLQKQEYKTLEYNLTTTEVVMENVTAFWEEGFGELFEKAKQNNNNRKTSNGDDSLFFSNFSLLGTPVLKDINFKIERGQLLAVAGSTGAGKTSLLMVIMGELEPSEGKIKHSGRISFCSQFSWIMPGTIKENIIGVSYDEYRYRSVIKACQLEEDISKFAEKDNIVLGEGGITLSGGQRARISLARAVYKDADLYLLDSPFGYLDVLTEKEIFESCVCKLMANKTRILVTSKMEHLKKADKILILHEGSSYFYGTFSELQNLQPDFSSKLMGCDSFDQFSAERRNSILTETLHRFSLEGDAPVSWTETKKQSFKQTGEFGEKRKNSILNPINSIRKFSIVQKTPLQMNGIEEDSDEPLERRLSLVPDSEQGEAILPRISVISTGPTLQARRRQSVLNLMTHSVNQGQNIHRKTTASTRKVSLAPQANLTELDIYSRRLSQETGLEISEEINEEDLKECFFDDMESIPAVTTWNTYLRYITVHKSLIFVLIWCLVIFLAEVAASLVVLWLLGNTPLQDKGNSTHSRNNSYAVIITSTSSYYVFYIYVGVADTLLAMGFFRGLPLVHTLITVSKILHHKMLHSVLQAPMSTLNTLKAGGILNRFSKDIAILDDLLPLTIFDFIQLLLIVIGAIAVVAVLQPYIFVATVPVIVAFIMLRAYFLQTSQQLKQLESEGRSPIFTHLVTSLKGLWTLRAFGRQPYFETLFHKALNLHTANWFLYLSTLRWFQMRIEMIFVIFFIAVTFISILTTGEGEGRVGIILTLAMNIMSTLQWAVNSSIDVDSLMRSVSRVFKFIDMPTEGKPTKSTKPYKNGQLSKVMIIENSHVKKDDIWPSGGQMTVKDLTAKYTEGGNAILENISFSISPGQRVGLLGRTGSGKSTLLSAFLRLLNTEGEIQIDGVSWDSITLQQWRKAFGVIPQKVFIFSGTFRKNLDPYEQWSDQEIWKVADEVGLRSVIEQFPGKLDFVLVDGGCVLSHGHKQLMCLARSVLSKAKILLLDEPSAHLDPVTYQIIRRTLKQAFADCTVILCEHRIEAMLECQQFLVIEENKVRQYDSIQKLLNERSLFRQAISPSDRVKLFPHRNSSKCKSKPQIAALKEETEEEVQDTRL
Outline: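 H441 and 41o- bronchial epithelial cells expressing ΔF508-CFTR with an extracellular-loop-4 HRP tag were treated with a 15-point compound series (24.5–0.001 μM) for two nights, H441 at 27° C, 41o- at 37° C with 0.0005 mg/ml doxycycline. Surface HRP luminescence read; % of maximum VX809 signal and EC50 derived.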

[2] = molecular target: T2, CFTR-mediated transepithelial chloride transport in primary human bronchial epithelial cells from a ΔF508 homozygous CF donor (Homo sapiens, UniProt P13569, DEL508-508); assay: TECC24 recording of CFTR-mediated transepithelial chloride transport in CF-HBE cells (AUC fold over DMSO); assay type: cell-based; conditions: test agent 10 μM, 48 hours incubation, AUC of forskolin-stimulated IEQ relative to DMSO
T2 construct: Primary human bronchial epithelial cells from a ΔF508 homozygous CF donor; host or cells: primary CF-HBE cells, ΔF508 homozygous donor
T2 sequence (P13569 with tags, fused parts or gaps DEL508-508): as above
Outline: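 Primary ΔF508/ΔF508 CF-HBE cells on inserts exposed to test agent in IL-13-containing medium for 48 h at 36.5 °C. Current-clamp VT/TEER recording in pH 7.4 HEPES saline with benzamil 10 μM, forskolin 10 μM, then CFTRinh-172 20 μM. AUC of equivalent Cl⁻ current between forskolin and inhibitor, expressed as ratio over vehicle.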

Row | Structure (SMILES) | EC50 [1] [nM] | Emax [1] [%] | TECC24 AUC fold over DMSO @10 μM [2]
1 | CC(C)(C)C[C@H](NC(=O)c1ccc2ccccc2c1OCc1ccc(S(F)(F)(F)(F)F)cc1)C(=O)O [Example 110, (S)-4,4-dimethyl-2-(1-((4-(pentafluoro-16-sulfanyl)benzyl)oxy)-2-naphthamido)pentanoic Acid] | 2100 | 83.1 | B (“B” refers to AUC @10 uM between 4-6)
2 | CC(C)(C)C[C@H](NC(=O)c1ccc2ccccc2c1OCc1ccc(SC(F)(F)F)cc1)C(=O)O [Example 115, (S)-4,4-dimethyl-2-(1-((4-((trifluoromethyl)thio)benzyl)oxy)-2-naphthamido)pentanoic Acid] | 1100 | 84 | C (“C” refers to AUC @10 uM <4)
3 | O=C(N[C@H](C(=O)O)C(c1ccccc1)c1ccccc1)c1ccc2ccccc2c1OCc1ccc(C(F)(F)F)cc1 [Example 126, (S)-3,3-diphenyl-2-(1-((4-(trifluoromethyl)benzyl)oxy)-2-naphthamido)propanoic Acid] | 100 | 214 | B (“B” refers to AUC @10 uM between 4-6)
4 | O=C(N[C@H](C(=O)O)C(c1ccccc1)c1ccccc1)c1ccc2ccccc2c1OCc1ccc(C(F)(F)F)c(F)c1 [Example 130, (S)-2-(1-((3-fluoro-4-(trifluoromethyl)benzyl)oxy)-2-naphthamido)-3,3-diphenylpropanoic Acid] | 200 | 196 | C (“C” refers to AUC @10 uM <4)
5 | O=C(N[C@H](C(=O)O)C(c1ccccc1)c1ccccc1)c1ccc2ccccc2c1OCc1ccc(C(F)(F)C(F)(F)F)cc1 [Example 131, (S)-2-(1-((4-(perfluoroethyl)benzyl)oxy)-2-naphthamido)-3,3-diphenylpropanoic Acid] | 100 | 204 | C (“C” refers to AUC @10 uM <4)
6 | C[C@@H](OC(C)(C)C)C(NC(=O)c1ccc2ccccc2c1OCc1ccc(C(F)(F)F)cc1)C(=O)O (stereo partly drawn) [Example 133, (3R)-3-(tert-butoxy)-2-(1-((4-(trifluoromethyl)benzyl)oxy)-2-naphthamido)butanoic Acid] | 1200 | 151 | A (“A” refers to AUC @10 uM >6)
7 | C[C@H](OC(C)(C)C)C(NC(=O)c1ccc2ccccc2c1OCc1ccc(C(F)(F)F)cc1)C(=O)O (stereo partly drawn) [Example 134, (3S)-3-(tert-butoxy)-2-(1-((4-(trifluoromethyl)benzyl)oxy)-2-naphthamido)butanoic Acid] | 1000 | 84.9 | C (“C” refers to AUC @10 uM <4)
8 | O=C(N[C@H](C(=O)O)c1cccc2ccccc12)c1ccc2ccccc2c1OCc1ccc(C(F)(F)F)cc1 [Example 142, (S)-2-(naphthalen-1-yl)-2-(1-((4-(trifluoromethyl)benzyl)oxy)-2-naphthamido)acetic Acid] | 2200 | 86.9 | C (“C” refers to AUC @10 uM <4)
9 | C[C@@H](OCc1ccccc1)C(NC(=O)c1ccc2ccccc2c1OCC1CCCCC1)C(=O)O (stereo partly drawn) [Example 150, (3R)-3-(benzyloxy)-2-(1-(cyclohexylmethoxy)-2-naphthamido)butanoic Acid] | 10900 | 82.5 | C (“C” refers to AUC @10 uM <4)
10 | O=C(N[C@H](C(=O)O)C1CCCC1)c1ccc2ccccc2c1OCC1CCC(F)(F)CC1 [Example 155, (S)-2-cyclopentyl-2-(1-((4,4-difluorocyclohexyl)methoxy)-2-naphthamido)acetic Acid] | 4100 | 60.7 | C (“C” refers to AUC @10 uM <4)

The remaining lines, values ahead:

Row | EC50 [1] [nM] | Emax [1] [%] | TECC24 AUC fold over DMSO @10 μM [2] | Structure (SMILES)
11 | 2300 | 93.1 | B (“B” refers to AUC @10 uM between 4-6) | O=C(N[C@H](C(=O)O)C1CCCC1)c1ccc2ccccc2c1OCc1ccc(S(F)(F)(F)(F)F)cc1 [Example 111, (S)-2-cyclopentyl-2-(1-((4-(pentafluoro-16-sulfanyl)benzyl)oxy)-2-naphthamido)acetic Acid]
12 | 2600 | 86.1 | C (“C” refers to AUC @10 uM <4) | O=C(N[C@H](C(=O)O)C1CCCC1)c1ccc2ccccc2c1OCc1ccc(SC(F)(F)F)cc1 [Example 114, (S)-2-cyclopentyl-2-(1-((4-((trifluoromethyl)thio)benzyl)oxy)-2-naphthamido)acetic Acid]
13 | 1200 | 51.4 | C (“C” refers to AUC @10 uM <4) | O=C(N[C@H](C(=O)O)C1CCCC1)c1ccc2cc(F)ccc2c1OCc1ccc(SC(F)(F)F)cc1 [Example 116, (S)-2-cyclopentyl-2-(6-fluoro-1-((4-((trifluoromethyl)thio)benzyl)oxy)-2-naphthamido)acetic Acid]
14 | 800 | 37.1 | A (“A” refers to AUC @10 uM >6) | O=C(N[C@H](C(=O)O)C1CCCC1)c1ccc2cc(F)ccc2c1OCc1ccc(OC(F)(F)F)cc1 [Example 119, (S)-2-cyclopentyl-2-(6-fluoro-1-((4-(trifluoromethoxy)benzyl)oxy)-2-naphthamido)acetic Acid]
15 | 1100 | 98.5 | C (“C” refers to AUC @10 uM <4) | CC(c1ccccc1)C(NC(=O)c1ccc2ccccc2c1OCc1ccc(C(F)(F)F)cc1)C(=O)O (stereo not drawn) [Example 127, 3-phenyl-2-(1-((4-(trifluoromethyl)benzyl)oxy)-2-naphthamido)butanoic Acid]
16 | 500 | 158 | A (“A” refers to AUC @10 uM >6) | O=C(N[C@H](C(=O)O)C1CCCCC1)c1ccc2ccccc2c1OCc1ccc(C(F)(F)F)cc1 [Example 128, (S)-2-cyclohexyl-2-(1-((4-(trifluoromethyl)benzyl)oxy)-2-naphthamido)acetic Acid]
17 | 12000 | 29.4 | C (“C” refers to AUC @10 uM <4) | O=C(N[C@H](C(=O)O)[C@H](O)c1ccccc1)c1ccc2ccccc2c1OCc1ccc(C(F)(F)F)cc1 [Example 129, (2S,3R)-3-hydroxy-3-phenyl-2-(1-((4-(trifluoromethyl)benzyl)oxy)-2-naphthamido)propanoic Acid]
18 | 8100 | 73.6 | C (“C” refers to AUC @10 uM <4) | O=C(N[C@@H](Cc1ccco1)C(=O)O)c1ccc2ccccc2c1OCc1ccc(C(F)(F)F)cc1 [Example 136, (S)-3-(furan-2-yl)-2-(1-((4-(trifluoromethyl)benzyl)oxy)-2-naphthamido)propanoic Acid]
19 | 1400 | 118 | C (“C” refers to AUC @10 uM <4) | COC(C)(C)[C@H](NC(=O)c1ccc2ccccc2c1OCc1ccc(C(F)(F)F)cc1)C(=O)O [Example 139, (S)-3-methoxy-3-methyl-2-(1-((4-(trifluoromethyl)benzyl)oxy)-2-naphthamido)butanoic Acid]
20 | 5700 | 82.9 | C (“C” refers to AUC @10 uM <4) | O=C(N[C@H](C(=O)O)c1ccccc1)c1ccc2ccccc2c1OCc1ccc(C(F)(F)F)cc1 [Example 140, (S)-2-phenyl-2-(1-((4-(trifluoromethyl)benzyl)oxy)-2-naphthamido)acetic Acid]
21 | 2300 | 147 | A (“A” refers to AUC @10 uM >6) | CC(C)(C)C[C@H](NC(=O)c1ccc2ccccc2c1OCc1ccc(C(F)(F)F)cc1)C(=O)O [Example 141, (S)-4,4-dimethyl-2-(1-((4-(trifluoromethyl)benzyl)oxy)-2-naphthamido)pentanoic Acid]
22 | 1900 | 135 | B (“B” refers to AUC @10 uM between 4-6) | O=C(N[C@H](C(=O)O)C1Cc2ccccc2C1)c1ccc2ccccc2c1OCc1ccc(C(F)(F)F)cc1 [Example 143, (S)-2-(2,3-dihydro-1H-inden-2-yl)-2-(1-((4-(trifluoromethyl)benzyl)oxy)-2-naphthamido)acetic Acid]
23 | 7200 | 122 | C (“C” refers to AUC @10 uM <4) | O=C(N[C@@H](Cc1c(Cl)cccc1Cl)C(=O)O)c1ccc2ccccc2c1OCc1ccc(C(F)(F)F)cc1 [Example 152, (S)-3-(2,6-dichlorophenyl)-2-(1-((4-(trifluoromethyl)benzyl)oxy)-2-naphthamido)propanoic Acid]
24 | 1500 | 73.5 | B (“B” refers to AUC @10 uM between 4-6) | O=C(N[C@H](C(=O)O)C1CCCC1)c1ccc2cc(F)ccc2c1OCc1ccc(C(F)(F)F)cc1 [Example 153, (S)-2-cyclopentyl-2-(6-fluoro-1-((4-(trifluoromethyl)benzyl)oxy)-2-naphthamido)acetic Acid]
25 | 1900 | 118 | A (“A” refers to AUC @10 uM >6) | O=C(N[C@H](C(=O)O)C1CCCC1)c1ccc2ccccc2c1OCc1ccc(C(F)(F)F)cc1 [Example 154, (S)-2-cyclopentyl-2-(1-((4-(trifluoromethyl)benzyl)oxy)-2-naphthamido)acetic Acid]
